Measured values from the supplement of paper PMC11061612.

Legend:
Capivasertib = compound: C1CN(CCC1(C(=O)N[C@@H](CCO)C2=CC=C(C=C2)Cl)N)C3=NC=NC4=C3C=CN4 [Capivasertib]; details: max 10 µM
Procedure, shortened: (§1)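 Viability was measured with CellTiter-Glo 2.0 luminescence after 72 hours of dosing at a final DMSO of typically 0.2%, and scaled between blank-well and DMSO-well means. Beforehand, cancer cell lines sat 24 hours at 37°C and 5% CO2 in 1536-well plates in 7.5 μl DMEM/F12 or RPMI with 10% FBS. A non-linear mixed effects model fitted two-parameter logistic curves to the dose responses. The single-agent IC50 comes from these fits.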

AZD1775 = compound: C=CCn1c(=O)c2cnc(Nc3ccc(N4CCN(C)CC4)cc3)nc2n1-c1cccc(C(C)(C)O)n1 [AZD1775]; details: max 3 µM
Procedure, shortened: as §1

Trametinib = compound: CC(=O)Nc1cccc(-n2c(=O)n(C3CC3)c(=O)c3c(Nc4ccc(I)cc4F)n(C)c(=O)c(C)c32)c1 [Trametinib]; details: max 1 µM
Procedure, shortened: as §1

Palbociclib = compound: CC(=O)c1c(C)c2cnc(Nc3ccc(N4CCNCC4)cn3)nc2n(C2CCCC2)c1=O [Palbociclib]; details: max 10 µM
Procedure, shortened: as §1

AZD1390 = compound: CC(C)n1c(=O)n(C)c2cnc3cc(F)c(-c4ccc(OCCCN5CCCCC5)nc4)cc3c21 [AZD1390]; details: max 0.3 µM
Procedure, shortened: as §1

Venetoclax = compound: CC1(C)CCC(CN2CCN(c3ccc(C(=O)NS(=O)(=O)c4ccc(NCC5CCOCC5)c([N+](=O)[O-])c4)c(Oc4cnc5[nH]ccc5c4)c3)CC2)=C(c2ccc(Cl)cc2)C1 [Venetoclax]; details: max 1 µM
Procedure, shortened: as §1

Dasatinib = compound: CC1=C(C(=CC=C1)Cl)NC(=O)C2=CN=C(S2)NC3=CC(=NC(=N3)C)N4CCN(CC4)CCO [Dasatinib]; details: max 2 µM
Procedure, shortened: as §1

SG3199 = compound: CC1=CN2[C@@H](C1)C=NC3=CC(=C(C=C3C2=O)OC)OCCCCCOC4=C(C=C5C(=C4)N=C[C@@H]6CC(=CN6C5=O)C)OC [SG3199]; details: max 0.001 µM
Procedure, shortened: as §1

AZD2811 = compound: CCN(CCO)CCCOc1ccc2c(Nc3cc(CC(=O)Nc4cccc(F)c4)[nH]n3)ncnc2c1 [AZD2811]; details: max 1 µM
Procedure, shortened: as §1

SN-38 = compound: CCc1c2c(nc3ccc(O)cc13)-c1cc3c(c(=O)n1C2)COC(=O)[C@]3(O)CC [SN-38]; details: max 0.3 µM
Procedure, shortened: as §1

AZD0156 = compound: CN(C)CCCOc1ccc(-c2ccc3ncc4c(c3c2)n(C2CCOCC2)c(=O)n4C)cn1 [AZD0156]; details: max 3 µM
Procedure, shortened: as §1

AZD4320 = compound: CN(CC[C@H](CSC1=CC=CC=C1)NC2=C(C=C(C=C2)S(=O)(=O)NC(=O)C3=CC=C(C=C3)N4CCC(CC4)[C@H](C5=CC=CC=C5C6=CC=C(C=C6)Cl)O)S(=O)(=O)C(F)(F)F)CCO [AZD4320]; details: max 1 µM
Procedure, shortened: as §1

Alisertib = compound: COc1cc(Nc2ncc3c(n2)-c2ccc(Cl)cc2C(c2c(F)cccc2OC)=NC3)ccc1C(=O)O [Alisertib]; details: max 10 µM
Procedure, shortened: as §1

Gefitinib = compound: COc1cc2ncnc(Nc3ccc(F)c(Cl)c3)c2cc1OCCCN1CCOCC1 [Gefitinib]; details: max 10 µM
Procedure, shortened: as §1

Prexasertib = compound: COc1cccc(OCCCN)c1-c1cc(Nc2cnc(C#N)cn2)n[nH]1 [Prexasertib]; details: max 1 µM
Procedure, shortened: as §1

Doxorubicin = compound: COc1cccc2c1C(=O)c1c(O)c3c(c(O)c1C2=O)C[C@@](O)(C(=O)CO)C[C@@H]3O[C@H]1C[C@H](N)[C@H](O)[C@H](C)O1 [Doxorubicin]; details: max 1 µM
Procedure, shortened: as §1

AZD5153 = compound: COc1nnc2ccc(N3CCC(c4ccc(OCCN5CCN(C)C(=O)[C@H]5C)cc4)CC3)nn12 [AZD5153]; details: max 1 µM
Procedure, shortened: as §1

Lapatinib = compound: CS(=O)(=O)CCNCc1ccc(-c2ccc3ncnc(Nc4ccc(OCc5cccc(F)c5)c(Cl)c4)c3c2)o1 [Lapatinib]; details: max 10 µM
Procedure, shortened: as §1

AZD8186 = compound: C[C@@H](Nc1cc(F)cc(F)c1)c1cc(C(=O)N(C)C)cc2c(=O)cc(N3CCOCC3)oc12 [AZD8186]; details: max 3 µM
Procedure, shortened: as §1

Crizotinib = compound: C[C@@H](Oc1cc(-c2cnn(C3CCNCC3)c2)cnc1N)c1c(Cl)ccc(F)c1Cl [Crizotinib]; details: max 10 µM
Procedure, shortened: as §1

Savolitinib = compound: C[C@@H](c1ccc2nccn2c1)n1nnc2ncc(-c3cnn(C)c3)nc21 [Savolitinib]; details: max 1 µM
Procedure, shortened: as §1

AZD6738 = compound: C[C@@H]1COCCN1C2=NC(=NC(=C2)C3(CC3)[S@](=N)(=O)C)C4=C5C=CNC5=NC=C4 [AZD6738]; details: max 10 µM
Procedure, shortened: as §1

AZD5991 = compound: Cc1c2c(nn1C)CSCc1cc(n(C)n1)CSc1cc(c3ccccc3c1)OCCCc1c(C(=O)O)n(C)c3c-2c(Cl)ccc13 [AZD5991]; details: max 1 µM
Procedure, shortened: as §1

AZD7648 = compound: Cc1cc2ncnn2cc1Nc1ncc2c(n1)n(C1CCOCC1)c(=O)n2C [AZD7648]; details: max 10 µM
Procedure, shortened: as §1

Taselisib = compound: Cc1nc(-c2cn3c(n2)-c2ccc(-c4cnn(C(C)(C)C(N)=O)c4)cc2OCC3)n(C(C)C)n1 [Taselisib]; details: max 10 µM
Procedure, shortened: as §1

Selumetinib = compound: Cn1cnc2c(F)c(Nc3ccc(Br)cc3Cl)c(C(=O)NOCCO)cc21 [Selumetinib]; details: max 10 µM
Procedure, shortened: as §1

MK-2206 = compound: NC1(c2ccc(-c3nc4ccn5c(=O)[nH]nc5c4cc3-c3ccccc3)cc2)CCC1 [MK-2206]; details: max 10 µM
Procedure, shortened: as §1

Olaparib = compound: O=C(c1cc(Cc2n[nH]c(=O)c3ccccc23)ccc1F)N1CCN(C(=O)C2CC2)CC1 [Olaparib]; details: max 10 µM
Procedure, shortened: as §1

Row | Cell Line | IC50, cell viability 72 h (Capivasertib) [nM] | IC50, cell viability 72 h (AZD1775) [nM] | IC50, cell viability 72 h (Trametinib) [nM] | IC50, cell viability 72 h (Palbociclib) [nM] | IC50, cell viability 72 h (AZD1390) [nM] | IC50, cell viability 72 h (Venetoclax) [nM] | IC50, cell viability 72 h (Dasatinib) [nM] | IC50, cell viability 72 h (SG3199) [nM] | IC50, cell viability 72 h (AZD2811) [nM] | IC50, cell viability 72 h (SN-38) [nM] | IC50, cell viability 72 h (AZD0156) [nM] | IC50, cell viability 72 h (AZD4320) [nM] | IC50, cell viability 72 h (Alisertib) [nM] | IC50, cell viability 72 h (Gefitinib) [nM] | IC50, cell viability 72 h (Prexasertib) [nM] | IC50, cell viability 72 h (Doxorubicin) [nM] | IC50, cell viability 72 h (AZD5153) [nM] | IC50, cell viability 72 h (Lapatinib) [nM] | IC50, cell viability 72 h (AZD8186) [nM] | IC50, cell viability 72 h (Crizotinib) [nM] | IC50, cell viability 72 h (Savolitinib) [nM] | IC50, cell viability 72 h (AZD6738) [nM] | IC50, cell viability 72 h (AZD5991) [nM] | IC50, cell viability 72 h (AZD7648) [nM] | IC50, cell viability 72 h (Taselisib) [nM] | IC50, cell viability 72 h (Selumetinib) [nM] | IC50, cell viability 72 h (MK-2206) [nM] | IC50, cell viability 72 h (Olaparib) [nM]
1 | SNU-407 (Colorectal Carcinoma) | 6340 | 1570 | 74.3 | > 10000 | > 300 | > 1000 | > 2000 | > 1 | > 1000 | 160 | > 3000 | > 1000 | 1150 | > 10000 | 458 | > 1000 | 62.9 | > 10000 | > 3000 | > 10000 | > 1000 | 4120 | > 1000 | > 10000 | 365 | 2560 | > 10000 | > 10000
2 | OAW-28 (Ovarian Carcinoma) | > 10000 | > 3000 | > 1000 | > 10000 | > 300 | > 1000 | > 2000 | > 1 | > 1000 | 11.4 | > 3000 | 176 | > 10000 | > 10000 | 720 | > 1000 | > 1000 | > 10000 | > 3000 | > 10000 | > 1000 | > 10000 | > 1000 | > 10000 | 6130 | > 10000 | > 10000 | > 10000
3 | SNU-C2B (Colorectal Carcinoma) | > 10000 | 1120 | > 1000 | > 10000 | > 300 | > 1000 | > 2000 | > 1 | > 1000 | > 300 | > 3000 | > 1000 | > 10000 | > 10000 | 133 | > 1000 | 788 | > 10000 | > 3000 | > 10000 | > 1000 | 7630 | > 1000 | > 10000 | 8210 | > 10000 |  | > 10000
4 | PA-TU-8988T (Pancreatic Carcinoma) | > 10000 | 1290 | > 1000 | > 10000 | > 300 | > 1000 | 664 | > 1 | > 1000 | 185 | > 3000 | > 1000 | > 10000 | > 10000 | > 1000 | 940 | 193 | > 10000 | > 3000 | > 10000 | > 1000 | > 10000 | > 1000 | > 10000 | 6150 | > 10000 |  | > 10000
5 | MOLP-8 (Plasma Cell Myeloma) | 8910 | 465 | > 1000 | > 10000 | > 300 | > 1000 | > 2000 | > 1 | > 1000 | 48.4 | 1740 | > 1000 | 5240 | > 10000 | 24.5 | 407 | 49.5 | > 10000 | > 3000 | 2650 | > 1000 | 3830 | 48.5 | > 10000 | 439 | > 10000 |  | > 10000
6 | Raji (Burkitt's Lymphoma) | > 10000 | 472 | > 1000 | > 10000 | > 300 | > 1000 | > 2000 | > 1 | > 1000 | 4.3 | > 3000 | > 1000 | > 10000 | > 10000 | 18.7 | 114 | 371 | > 10000 | > 3000 | > 10000 | > 1000 | 3810 | 506 | > 10000 | > 10000 | > 10000 |  | > 10000
7 | NCI-H1876 (Small Cell Lung Carcinoma) | > 10000 | 330 | > 1000 | > 10000 | > 300 | > 1000 | > 2000 | > 1 | 149 | 1.03 | > 3000 | 176 | 265 | > 10000 | 29.2 | 221 | > 1000 | > 10000 | > 3000 | 5910 | > 1000 | 4710 | > 1000 | > 10000 | 3900 | > 10000 | > 10000 | 4440
